Each block holds one compound with its values, some of them ahead of it.
Columns and labels:
pH of 30% solution = assay type: physicochemical
Water solubility = assay type: physicochemical; settings: for water solubility: synthesis example, isolated powder
[1] = test system: Total Plate Count Microorganism; test: Biocide effication plate test, total plate count microorganism; assay type: cell-based; settings: for Total Plate Count: Blanco/Control 2400
Salmonella Typhii = test: Antibacterial activity MIC; assay type: cell-based; settings: pH 7-7.5, sample 30% in aqueous solution
Protocol: (§1) The ability of Tetra Hydroxy Ethyl Di Sulphate-Di Natrium (THES) as a Sulphate chelating agent to open/loosen the cell membrane was tested against two types of bacterias, ie: Staphylococcus aerus (gram positive) that has two cell membrane (the outer membrane as the outer cell wall and the inner membrane) and E. Colli (gram negative) that has three cell membranes. First, the Minimum Inhibitory Concentration (MIC) of each bacterias was determined, then the bacteria membrane alteration after contacting with THES were observed by Electron Microscope (TEM and SEM) with the THES concentration range below and above MIC. Antibacterial activity was tested using disc-diffusion method by checking the clear zone from the paper disc inhibition that contains THES. The growth curve were made by means examining the bacterial culture on the broth media.
(§2) • 1. Bacteria preparation • The testing bacterias were growth on the aqueous medium and incubated for 24 hours at 37° C. • 2. […] This gradual concentration variation is necessary to determine MIC (Minimum Inhibitory Concentration) and the bacteriostatic/bactericidal properties of the tested Biocide. • 3. Determination of Killing method (bacteriostatic and bactericidal properties) • The testing was done on the aqueous medium contains the tested substance with the concentration 5, 10 and 20%. The turbidity of the cultured medium then will be measured every 30 minutes until 270 minutes with spectrophotometer. • 4. Preparation of microbe cells for electron microscope examination • Staphylococcus aereus and Escherichia coli were growth on the aqueous medium within 24 hours, then mixed with tetra hydroxy ethyl di sulphate di sodium (THES) with the final concentration 0.6; 5 and 10%. This system mixtures then was placed under vibrating incubator for several hours. Microbe cells then were separated and washed, first with NaCl 0.9% then with distilled water. Cells then were utilized for the preparation of electron microscope testing. • 5. Preparation for Scanning Electron Microscope (SEM) examination • Bacteria cells were suspended into 4% collodion. The said suspensions then were fixed on some metal disc and were coated with the gold powder. Then were examined with electron microscope and pictured. • 6. Preparation for Transmittance Electron Microscope (TEM) examination • a) The prepared microbes in (5) were fixed into a mixture of formaldehyde 2% and glutaraldehyde 0.5% for 2 hours at 4° C. • b) The above mixtures then was three times washed with pH 7 phosphate buffer, then were diluted into bovin serum albumin (BSA) 1/5 for embedded preparation, while leave glutaraldehyde hardening at room temperature. • c) After leaving dehydrated in alcohol, the white LR resin then will be infiltrated. • d) Embedded process were done at white LR resin following by polymerization process at 60° C. for 48 hours time. The polymerization product as hardened capsules then are ready to be sliced. • e) Making of semi thin and ultra thin slices. • Slices of microbe sample were made by utilizing automatic ultra microtom. To get the precised and accurate slices of sample, semi thin slice were made and coloured with blue toluidine then were examined under the visible microscope. When the right slices were obtained, ultra thin slices were prepared and were made contrast with uranil acetate and lead citrate. The dried ultra thin slices then can be examined with Transmittance Electron Microscope. Testing Results Minimum Inhibitory Concentration (MIC)
(§3) The test done on the pH range of 7-7.5 with the sample of Tetra Hydroxy Ethyl Di Sulphate-Di Natrium (THES-Di Natrium) 30% in aqueous solution.

[2] = test system: Bacillus Subtilis ATCC 6633; test: Antibacterial activity MIC; assay type: cell-based; settings: pH 7-7.5, sample 30% in aqueous solution
Protocol: as §1, §2, §3

[3] = test system: Staphylococcus Epidermidis ATCC 12228; test: Antibacterial activity MIC; assay type: cell-based; settings: pH 7-7.5, sample 30% in aqueous solution
Protocol: as §1, §2, §3

[4] = test system: Staphylococcus Aerus ATCC 6538; test: Antibacterial activity MIC; assay type: cell-based; settings: pH 7-7.5, sample 30% in aqueous solution
Protocol: as §1, §2, §3

[5] = test system: Pseudomonas Aeruginosa ATCC 27853; test: Antibacterial activity MIC; assay type: cell-based; settings: pH 7-7.5, sample 30% in aqueous solution
Protocol: as §1, §2, §3

Klebsiella Pneumoniae = test: Antibacterial activity MIC; assay type: cell-based; settings: pH 7-7.5, sample 30% in aqueous solution
Protocol: as §1, §2, §3

[6] = test system: Escherichia Coli ATCC 25922; test: Antibacterial activity MIC; assay type: cell-based; settings: pH 7-7.5, sample 30% in aqueous solution
Protocol: as §1, §2, §3

Acinetobacter Anitratus = test: Antibacterial activity MIC; assay type: cell-based; settings: pH 7-7.5, sample 30% in aqueous solution
Protocol: as §1, §2, §3

[7] = test system: Escherichia coli ATCC 9637; test: Electron microscope (TEM and SEM) examination of cell membrane; assay type: cell-based; settings: in contact with 0.05% and 1% THES at pH 7 (FIG. 5)
Protocol: as §1
(§4) Staphylococcus aerus ATCC 6538, Escherichia coli ATCC 9637 were supplied from Chemotherapy Laboratory of Pharmaceutical Department, Bandung Institute of Technology (ITB).
(§5) • 1. […] The turbidity of the cultured medium then will be measured every 30 minutes until 270 minutes with spectrophotometer. • 4. […] The polymerization product as hardened capsules then are ready to be sliced. • e) Making of semi thin and ultra thin slices. • Slices of microbe sample were made by utilizing automatic ultra microtom. […]

[8] = test system: Staphylococcus Aerus ATCC 6538; test: as above; assay type: cell-based; settings: in contact with 0.05% and 1% THES at pH 7 (FIG. 4)
Protocol: as §1, §4, §5

Candida Albicans = test: Antifungal activity MIC; assay type: cell-based; settings: pH 7-7.5, sample 30% in aqueous solution
Protocol: as §1
as §5, with “1. Bacteria preparation • The testing bacterias were growth on the aqueous medium and incubated for 24 hours at 37° C. • 2.” for “1.”

Aspergillus Niger = test: Antifungal activity MIC; assay type: cell-based; settings: pH 7-7.5, sample 30% in aqueous solution
Protocol: as §1
as §5, with “1. Bacteria preparation • The testing bacterias were growth on the aqueous medium and incubated for 24 hours at 37° C. • 2.” for “1.”

E. Coli = test: Biocide effication plate test, E. Coli; assay type: cell-based; settings: for Total Plate Count: Blanco 3900
Staphylococcus Aerus = test: Biocide effication plate test, Staphylococcus Aerus; assay type: cell-based; settings: biocide dosing 0.025%

SMILES: O=S(=O)(O)OC(O)C(O)(OS(=O)(=O)O)C(O)(OS(=O)(=O)O)C(O)OS(=O)(=O)O (stereo not shown) [Tetra Hydroxy Butyl 1,2,3,4 Tetra Sulphate]
pH of 30% solution (pH of 30% solution): <0.0 | Solubility @ 25° C. (Water solubility): 39.6%

SMILES: O=S(=O)(O)OC(O)(O)C(O)(O)OS(=O)(=O)O [Tetra Hydroxy Ethyl Di Sulphate]
pH of 30% solution (pH of 30% solution): <0.5 | Solubility @ 25° C. (Water solubility): 48.0% | water solubility (Water solubility): 48%

SMILES: O=S(=O)(O)OC(OS(=O)(=O)O)(OS(=O)(=O)O)C(OS(=O)(=O)O)(OS(=O)(=O)O)OS(=O)(=O)O [EHS, Ethyl Hexa Sulphate acid (EHS)]
pH of 30% solution (pH of 30% solution): 0.0 | Solubility @ 25° C. (Water solubility): 48% | water solubility (Water solubility): 48%

SMILES: O=S(=O)([O-])OC(O)C(O)(OS(=O)(=O)[O-])C(O)(OS(=O)(=O)[O-])C(O)OS(=O)(=O)[O-].[Na+].[Na+].[Na+].[Na+] (stereo not shown) [Tetra Hydroxy Butyl 1,2,3,4 Tetra Sulphate Tetra Natrium]
pH of 30% solution (pH of 30% solution): 0.0-1.0 | Solubility @ 25° C. (Water solubility): 27.3%

SMILES: O=S(=O)([O-])OOC(O)C(O)(OS(=O)(=O)[O-])C(C(O)OS(=O)(=O)[O-])C(O)OS(=O)(=O)[O-].[Na+].[Na+].[Na+].[Na+] (stereo not shown) [Tetra Hydroxy Isoamyl 1,2,3,4-Tetra Sulphate Tetra Natrium]
pH of 30% solution (pH of 30% solution): 0.0-0.5 | Solubility @ 25° C. (Water solubility): 40.1%

SMILES: O=S(=O)([O-])OC(O)(O)C(O)(O)OS(=O)(=O)[O-].[Na+].[Na+] [THES-di Natrium]
Killing efficiency ([1]; biocide dosing 0.05%): 94.5 | Total Plate Count ([1]; biocide dosing 0.05%): 132 Colony/ml | Killing efficiency ([1]; biocide dosing 0.1%): 95.2 | Total Plate Count ([1]; biocide dosing 0.1%): 115 Colony/ml | Killing efficiency ([1]; biocide dosing 0.5%): 95.8 | Total Plate Count ([1]; biocide dosing 0.5%): 101 Colony/ml | Killing efficiency ([1]; biocide dosing 1.0%): 96.7 | Total Plate Count ([1]; biocide dosing 1.0%): 80 Colony/ml | Minimum Inhibitory Concentration (MIC) (Salmonella Typhii): 0.115% | Minimum Inhibitory Concentration (MIC) [2]: 0.234% | Minimum Inhibitory Concentration (MIC) [3]: 0.234% | Minimum Inhibitory Concentration (MIC) [4]: 0.234% | Minimum Inhibitory Concentration (MIC) [5]: 0.115% | Minimum Inhibitory Concentration (MIC) (Klebsiella Pneumoniae): 0.234% | Minimum Inhibitory Concentration (MIC) [6]: 0.234% | Minimum Inhibitory Concentration (MIC) (Acinetobacter Anitratus): 0.115% | pH of 30% solution (pH of 30% solution): 0.5-1.5 | transversal section (TEM) of cell, cell membrane alteration [7]: also experienced the said internal cell liquid lysis out of its cell wall membrane layers | transversal section (TEM) of cell, cell membrane alteration [8]: partly empty cells that has already lost its cytoplasm liquid due to lysis out of cell wall membrane | Minimum Inhibitory Concentration (MIC) (Candida Albicans): 0.469% | Minimum Inhibitory Concentration (MIC) (Aspergillus Niger): 0.937% | Killing efficiency (E. Coli; biocide dosing 0.025%): 48.5 | Total Plate Count (E. Coli; biocide dosing 0.025%): 2010 Colony/ml | Killing efficiency (E. Coli; biocide dosing 0.05%): 70.5 | Total Plate Count (E. Coli; biocide dosing 0.05%): 1150 Colony/ml | Killing efficiency (E. Coli; biocide dosing 0.1%): 73.1 | Total Plate Count (E. Coli; biocide dosing 0.1%): 1050 Colony/ml | Killing efficiency (E. Coli; biocide dosing 0.5%): 75.1 | Total Plate Count (E. Coli; biocide dosing 0.5%): 970 Colony/ml | Killing efficiency (E. Coli; biocide dosing 1.0%): 81.5 | Total Plate Count (E. Coli; biocide dosing 1.0%): 720 Colony/ml | Killing efficiency (E. Coli; biocide dosing 5.0%): 83.8 | Total Plate Count (E. Coli; biocide dosing 5.0%): 630 Colony/ml | Killing efficiency (Staphylococcus Aerus): 69.8 | Total Plate Count (Staphylococcus Aerus; Blanco 980): 296 Colony/ml | Solubility @ 25° C. (Water solubility): 31.5% | water solubility (Water solubility): 31%

The next lines start with the values.

pH of 30% solution (pH of 30% solution): 0.0-1.0 | Solubility @ 25° C. (Water solubility): 36.2%
SMILES: O=S(=O)([O-])OC(O)C(C(O)OS(=O)(=O)[O-])C(O)OS(=O)(=O)[O-].[Na+].[Na+].[Na+] (stereo not shown) [Tri Hydroxy Isobutyl 1,2,3-Tri Sulphate Tri Natrium]

pH of 30% solution (pH of 30% solution): <0.0 | Solubility @ 25° C. (Water solubility): 56.7%
SMILES: O=S(=O)(O)OC(O)C(C(O)OS(=O)(=O)O)C(O)OS(=O)(=O)O (stereo not shown) [Tri Hydroxy Isobutyl 1,2,3-Tri Sulphate]

pH of 30% solution (pH of 30% solution): <0 | Solubility @ 25° C. (Water solubility): 61.2%
SMILES: O=S(=O)(O)OOC(O)C(O)(OS(=O)(=O)O)C(C(O)OS(=O)(=O)O)C(O)OS(=O)(=O)O (stereo not shown) [Tetra Hydroxy Isoamyl 1,2,3,4-Tetra Sulphate]
